Laboratory results: US20130225683A1, “Compounds and Pharmaceutical Compositions for Uses in Diabetes” (PROMETIC BIOSCIENCES INC., priority 2010, published 2013)
“Also recorded” adds a separate entry of the source.

Columns and labels:
[1] = test system: 5/6 nephrectomized (Nx) rat model; assay: 5/6 nephrectomized (Nx) rat model, Compound XIV by gastric gavage once daily; type: in vivo, male Wistar rats; details: Nx rats, p<0.01
From the text: Male 6 week-old Wistar rats were subjected to 5/6 nephrectomy or sham operations. Under fluothane anesthesia, renal ablation was achieved by removing two-thirds of the left kidney followed by a right unilateral nephrectomy 7 days later. Sham rats underwent exposition of the kidneys and removal of the perirenal fat. Animals that underwent the sham operation were given vehicle (saline) and were used as controls. Nx animals were divided in groups receiving the vehicle or Compound XIV. Saline or Compound XIV was given by gastric gavage once daily up to the sacrifice. Serum glucose was measured every three weeks in order to assess the effect of the compound on serum glucose concentration in a renal disease model. Rats were sacrificed at day 126.

[2] = test system: streptozotocin-induced diabetes; assay: Streptozotocin-induced diabetes model in rats, oral Compound I; type: in vivo, male Sprague Dawley rats
Procedure: Diabetes was induced by a single intraperitoneal administration of streptozotocin (65 mg/kg of body weight) in fasted male Sprague Dawley rats, weighing approximately 200-250 g. After 48 hours, rats with plasma glucose more than 10 mmole/L were enrolled and treated with vehicle or compounds. Streptozotocin is well known to induce […] toxicity. […] Ketonuria is a medical condition in which ketone bodies are present in the urine. It is seen in conditions in which the body produces excess ketones as an alternative source of energy. It is seen during starvation or more commonly in diabetes. […] Proteinuria is a medical condition in which an excess of protein is present in the urine. Proteinuria may be a sign of renal kidney damage. Since serum proteins are readily reabsorbed from urine, the presence of excess protein indicates either an insufficiency of absorption or impaired filtration. Diabetics may suffer from damaged nephrons and develop proteinuria. The most common cause of proteinuria is diabetes. […] Despite the available therapies of glycemic and blood pressure control, many patients continue to show progressive renal damage. Therefore, it is extremely important to identify novel interventions to halt the progression of diabetic nephropathy.

[3] = test system: diabetic mouse (db/db) model; assay: Diabetic db/db uninephrectomized mouse model, oral Compound I; type: in vivo, male Lepr db (db/db) mice; details: 100 mg/kg per day oral; day 69 to day 128; FIG. 7
Procedure: Male Lepr db (db/db) and age- and sex-matched control mice with the same genetic background (C57BL/6) were used. Animals were randomized using blood sugar measurement (5-hours starved) at week 6 and uninephrectomy (removal of right kidney) was performed. Sham animals (C57BL/6) underwent exposition of the right kidney. Animals that underwent the sham operation were given vehicle (saline) and were used as negative controls. C57BL/6 mice that were uninephrectomized were given vehicle and were used as positive controls. Db/db mice were treated with oral administration of compound I at 100 mg/kg per day for 131 days. Serum glucose was measured every two to four weeks. Oral glucose tolerance test was performed on 16-hours starved mice at day 112. […] Fluorescence was determined and GFR calculated based on a two-compartment model using nonlinear regression curve-fitting software.

Structure (SMILES) | urinary proteins concentration ([1]; 10 mg/kg, day 84 and 126, FIG. 6) | serum glucose concentration ([1]; 50 mg/kg, day 42 to day 126, FIG. 5) | level of increase in blood glucose (delta) ([2]; 100 mg/kg oral, day 2 to day 62 post-streptozotocin, p<0.05, FIG. 1) | urinary protein (proteinuria) ([2]; 100 mg/kg oral, vs STZ+ (diabetic) animals, FIG. 3) | ketone bodies in urine ([2]; streptozotocin-diabetic rats, treated vs untreated, p<0.05, FIG. 2) | serum glucose concentration (percent increase vs C57BL/6 sham) [3]
CCCCCCCCC(Oc1ccc(C(=O)CCCCCCC)cc1)C(=O)[O-].[Na+] (racemic) [Compound XIV, Sodium (RS)-2-[4-octanoylphenoxy]decanoate] | significant (p<0.01) decrease | significant (p<0.01) decrease | – | – | – | –
CCCCCc1cccc(CC(=O)[O-])c1.[Na+] [Compound I] | – | – | decrease significantly | completely abbrogated the presence of urinary protein | significantly reduce the appearance of ketone bodies in the urine; also recorded: significantly (p<0.05) reduced | significant decrease
